Data: patent US20240101572A1, “DIHYDROOXADIAZINONE COMPOUND AND PHARMACEUTICAL USE THEREOF” (Japan Tobacco Inc., priority 2022, published 2024)
Like-named read-outs stand apart in the source and are kept apart here.

What was measured:
full-length human PLD1 = full-length human PLD1 (Homo sapiens (Human), UniProt Q13393); assay: Evaluation of human PLD1 enzyme inhibitory activity (Amplex Red / choline oxidase fluorescence); assay type: biochemical
Outline: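 N-terminally FLAG-tagged full-length human PLD1 (1-1036), expressed in Expi293F and FLAG-purified, incubated with compound (5% DMSO final) and 1,2-diheptanoyl-sn-glycero-3-phosphocholine for 60 min at room temperature in HEPES pH 7.5 buffer. Released choline detected by Amplex Red/choline oxidase/HRP fluorescence.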

full-length human PLD2 = full-length human PLD2 (Homo sapiens (Human), UniProt O14939); assay: Evaluation of human PLD2 enzyme inhibitory activity (Amplex Red / choline oxidase fluorescence); assay type: biochemical
Outline: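 Enzyme was N-terminal FLAG-tagged full-length human PLD2 (1-933), expressed in Expi293F cells and anti-FLAG purified. Compound (5% DMSO final) was incubated with enzyme (6 nmol/L solution) and 1,2-diheptanoyl-PC (6 mmol/L solution) in HEPES pH 7.5, KCl, EGTA, MgCl2, NP-40, BSA buffer for 60 min at room temperature. Choline was detected with Amplex Red/choline oxidase/HRP.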

[1] = full-length human PLD1 enzyme, read-out: PLD1 IC50
[2] = full-length human PLD2 enzyme, read-out: PLD2 IC50
[3] = column 1 of continuation tables 2-12 to 2-14, read-out: human PLD1 enzyme inhibitory activity IC50
[4] = column 2 of continuation tables 2-12 to 2-14, read-out: human PLD2 enzyme inhibitory activity IC50

full-length human PLD2, sequence (O14939 whole entry): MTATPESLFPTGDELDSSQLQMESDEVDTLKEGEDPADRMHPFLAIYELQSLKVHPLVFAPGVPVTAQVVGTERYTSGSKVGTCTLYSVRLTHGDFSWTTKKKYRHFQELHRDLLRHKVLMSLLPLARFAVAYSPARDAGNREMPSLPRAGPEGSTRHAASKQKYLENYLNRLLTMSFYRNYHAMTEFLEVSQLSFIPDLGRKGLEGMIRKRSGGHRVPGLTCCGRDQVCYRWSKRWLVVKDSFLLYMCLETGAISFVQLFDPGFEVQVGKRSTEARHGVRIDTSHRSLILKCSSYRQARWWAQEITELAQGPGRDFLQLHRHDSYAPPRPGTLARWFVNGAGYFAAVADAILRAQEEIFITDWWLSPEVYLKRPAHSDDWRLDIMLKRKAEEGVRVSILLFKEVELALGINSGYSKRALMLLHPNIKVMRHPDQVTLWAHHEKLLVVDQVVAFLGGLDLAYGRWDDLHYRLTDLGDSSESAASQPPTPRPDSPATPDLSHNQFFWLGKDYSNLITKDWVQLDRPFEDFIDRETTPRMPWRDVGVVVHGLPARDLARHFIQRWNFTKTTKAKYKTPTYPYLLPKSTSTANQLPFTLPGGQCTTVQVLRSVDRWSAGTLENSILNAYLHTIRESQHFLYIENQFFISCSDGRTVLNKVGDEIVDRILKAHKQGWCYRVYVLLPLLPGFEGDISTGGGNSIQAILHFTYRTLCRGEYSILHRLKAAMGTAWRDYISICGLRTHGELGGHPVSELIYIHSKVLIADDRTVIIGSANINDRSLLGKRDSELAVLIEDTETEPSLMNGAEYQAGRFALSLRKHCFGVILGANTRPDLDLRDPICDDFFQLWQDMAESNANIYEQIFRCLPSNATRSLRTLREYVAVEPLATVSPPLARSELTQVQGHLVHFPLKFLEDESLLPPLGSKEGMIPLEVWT
full-length human PLD1, sequence (Q13393 other isoform, or with tags, fused parts or gaps): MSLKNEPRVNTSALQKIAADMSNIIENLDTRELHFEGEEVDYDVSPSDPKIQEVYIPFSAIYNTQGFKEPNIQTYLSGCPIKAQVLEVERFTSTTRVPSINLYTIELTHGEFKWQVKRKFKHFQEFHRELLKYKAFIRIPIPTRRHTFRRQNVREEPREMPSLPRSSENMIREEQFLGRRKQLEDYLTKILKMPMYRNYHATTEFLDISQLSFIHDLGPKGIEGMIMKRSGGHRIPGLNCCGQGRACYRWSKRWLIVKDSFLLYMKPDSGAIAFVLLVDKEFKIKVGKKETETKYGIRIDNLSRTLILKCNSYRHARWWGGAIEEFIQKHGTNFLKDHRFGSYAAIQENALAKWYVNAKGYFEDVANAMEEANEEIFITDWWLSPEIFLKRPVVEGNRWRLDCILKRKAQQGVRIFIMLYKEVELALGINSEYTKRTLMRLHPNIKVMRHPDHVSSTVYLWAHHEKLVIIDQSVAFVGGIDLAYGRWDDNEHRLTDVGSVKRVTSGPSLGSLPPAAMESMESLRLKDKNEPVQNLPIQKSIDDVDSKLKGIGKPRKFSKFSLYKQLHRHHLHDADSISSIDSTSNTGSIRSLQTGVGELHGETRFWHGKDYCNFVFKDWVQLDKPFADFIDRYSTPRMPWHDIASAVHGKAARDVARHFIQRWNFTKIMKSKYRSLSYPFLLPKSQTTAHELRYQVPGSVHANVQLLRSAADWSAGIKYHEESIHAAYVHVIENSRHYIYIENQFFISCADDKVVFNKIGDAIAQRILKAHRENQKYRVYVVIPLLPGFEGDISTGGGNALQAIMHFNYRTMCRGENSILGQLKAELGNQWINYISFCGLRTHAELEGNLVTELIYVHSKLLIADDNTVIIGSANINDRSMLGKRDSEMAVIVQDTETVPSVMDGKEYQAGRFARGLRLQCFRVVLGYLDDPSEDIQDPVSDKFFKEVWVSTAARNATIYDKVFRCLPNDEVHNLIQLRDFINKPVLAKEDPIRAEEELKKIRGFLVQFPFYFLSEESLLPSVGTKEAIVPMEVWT

SMILES	IC50 (full-length human PLD1; [1]) [nM]	IC50 (full-length human PLD2; [2]) [nM]	IC50 (full-length human PLD1; [3]) [nM]	IC50 (full-length human PLD2; [4]) [nM]
C[C@@H](CN1CCC2(CC1)OC(=O)NN=C2c1ccc(F)cc1Cl)NC(=O)c1cc(C(F)(F)F)[nH]n1 [Example 100]	41	33	–	–
C[C@@H](C[C@H]1CC[C@]2(CC1)OC(=O)NN=C2c1cc(Cl)ccc1Cl)NC(=O)c1cn2ccccc2n1 [Example 324]	20	22	–	–
Cc1cc(C(=O)N[C@@H](C)[C@H](C)N2CCC3(CC2)OC(=O)NN=C3c2ccc(F)cc2Br)[nH]n1 [Example 288]	26	< 10	–	–
C[C@@H](C[C@H]1CC[C@]2(CC1)OC(=O)NN=C2c1cc(OC(F)(F)F)ccc1Br)NC(=O)c1cnn(C)c1 [Example 303]	11	< 10	–	–
C[C@@H](C[C@H]1CC[C@]2(CC1)OC(=O)NN=C2c1ccc(Br)cc1)NC(=O)c1cc2ccccc2o1 [Example 50]	33	51	–	–
CNC(=O)C(=O)N[C@@H](C)C[C@H]1CC[C@]2(CC1)OC(=O)NN=C2c1cnc(C(C)(C)O)cc1C [Example 185]	68	64	–	–
C[C@@H](C[C@H]1CC[C@]2(CC1)OC(=O)NN=C2c1cc(C(C)(C)O)ccc1Br)NC(=O)c1cnn(C)c1 [Example 2-027]	13	< 10	–	–
C[C@@H](CN1CCC2(CC1)OC(=O)NN=C2c1cc(C#N)ccc1Cl)NC(=O)[C@H](O)C(F)(F)F [Example 2-009]	2150	1040	–	–
Cc1cc(C(=O)N[C@@H](C)C[C@H]2CC[C@]3(CC2)OC(=O)NN=C3c2cnc(N3C[C@@H]4C[C@H]3CO4)cc2Cl)[nH]n1 [Example 240]	13	< 10	–	–
CNC(=O)C(=O)N[C@@H](C)C[C@H]1CC[C@]2(CC1)OC(=O)NN=C2c1cn(CC(F)F)nc1I [Example 2-058]	26	66	–	–
C[C@@H](CN1CCC2(CC1)OC(=O)NN=C2c1ccc(C#N)cc1Br)NC(=O)c1cn(C)cn1 [Example 2-060]	27	11	–	–
CNC(=O)C(=O)N[C@@H](C)C[C@H]1CC[C@]2(CC1)OC(=O)NN=C2c1ccc(C)cc1C [Example 145]	17	< 10	–	–
CNC(=O)C(=O)N[C@@H](C)C[C@H]1CC[C@]2(CC1)OC(=O)NN=C2c1ccc(C#N)c(C)c1 [Example 205]	35	102	–	–
C[C@@H](C[C@H]1CC[C@]2(CC1)OC(=O)NN=C2c1ccc(OC(F)F)cc1Br)NC(=O)c1cc(Cl)n[nH]1 [Example 144]	11	< 10	–	–
C[C@@H](C[C@]1(C#N)CC[C@@]2(CC1)OC(=O)NN=C2c1cc(C(F)(F)F)ccc1Br)NC(=O)c1cn(C)cn1 [Example 2-079]	11	10	–	–
CNC(=O)C(=O)N[C@@H](C)C[C@H]1CC[C@]2(CC1)OC(=O)NN=C2c1cnc(N2C[C@H]3C[C@@H]2CO3)cc1C [Example 267]	26	< 10	–	–
CNC(=O)C(=O)N[C@@H](C)C[C@H]1CC[C@]2(CC1)OC(=O)NN=C2c1cnc(N2CCOCC2)cc1C [Example 164]	38	< 10	–	–
Cc1cc(C(=O)N[C@@H](C)CN2CC[C@]3(C[C@@H]2C)OC(=O)NN=C3c2ccc(C#N)cc2Cl)[nH]n1 [Example 281]	169	232	–	–
C[C@@H](C[C@H]1CC[C@]2(CC1)OC(=O)NN=C2c1cc(OCC(F)(F)F)ccc1Br)NC(=O)c1cnn(C)c1 [Example 305]	15	< 10	–	–
CNC(=O)C(=O)N[C@@H](C)CN1CCC2(CC1)OC(=O)NN=C2c1cn(C)nc1I [Example 2-043]	33	152	–	–
Cc1cc(C(=O)N[C@@H](C)CN2CCC3(CC2)OC(=O)NN=C3c2ccc(F)cc2Cl)no1 [Example 98]	57	78	–	–
CNC(=O)C(=O)N[C@@H](C)CN1CCC2(CC1)OC(=O)NN=C2c1cccn2nccc12 [Example 2-039]	153	264	–	–
CNC(=O)C(=O)N[C@@H](C)C[C@H]1CC[C@]2(CC1)OC(=O)NN=C2c1ccc(Br)cc1C [Example 161]	20	13	–	–
CNC(=O)C(=O)N[C@@H](C)C[C@]1(C#N)CC[C@@]2(CC1)OC(=O)NN=C2c1cc(OC(F)F)ccc1Br [Example 2-055]	11	< 10	–	–
CNC(=O)C(=O)N[C@@H](C)C[C@H]1CC[C@]2(CC1)OC(=O)NN=C2c1ccc(OC(F)(F)F)cc1Br [Example 80]	< 10	< 10	–	–
C[C@@H](C[C@H]1CC[C@]2(CC1)OC(=O)NN=C2c1ccc(F)cc1Br)NC(=O)C(F)F [Example 211]	102	429	–	–

SMILES	IC50 (full-length human PLD1; [1]) [nM]	IC50 (full-length human PLD2; [2]) [nM]	IC50 (full-length human PLD1; [3]) [nM]	IC50 (full-length human PLD2; [4]) [nM]
C[C@@H](C[C@H]1CC[C@]2(CC1)OC(=O)NN=C2c1cccc2c1OCC2)NC(=O)c1cc(Cl)no1 [Example 108]	25	38	–	–
CNC(=O)C(=O)N[C@@H](C)C[C@H]1CC[C@]2(CC1)OC(=O)NN=C2c1cc(C#N)ccc1Br [Example 198, N^1—((S)-1-(cis-5-(2-bromo-5-cyanophenyl)-2-oxo-1-oxa-3,4-diazaspiro[5.5]undec-4-en-9-yl)propan-2-yl)-N^2-methyloxamide]	11	< 10	–	–
Cc1cc(C(=O)N[C@@H](C)CN2CCC3(CC2)OC(=O)NN=C3c2cc(C#N)ccc2Cl)[nH]n1 [Example 2-007]	28	< 10	–	–
CNC(=O)C(=O)N[C@@H](C)C[C@H]1CC[C@]2(CC1)OC(=O)NN=C2c1cnc(N2CCC(F)(F)C2)cc1Cl [Example 241]	17	< 10	–	–
C[C@@H](CN1CCC2(CC1)OC(=O)NN=C2c1ccc(F)cc1)NC(=O)c1cc2cc(F)ccc2[nH]1 [Example 1]	33	< 10	–	–
C[C@@H](CC1CCC2(CC1)OC(=O)NN=C2c1ccncc1Br)NC(=O)c1cc2ccccc2o1 (mixture of isomers) [Example 122]	< 10	< 10	–	–
CNC(=O)C(=O)N[C@@H](C)C[C@H]1CC[C@]2(CC1)OC(=O)NN=C2c1ccc(S(C)(=O)=O)cc1 [Example 10]	92	106	–	–
[2H]C([2H])([2H])NC(=O)C(=O)N[C@@H](C)C[C@]1(OC)CC[C@@]2(CC1)OC(=O)NN=C2c1cccc(C(F)(F)F)c1Br [Example 2-129]	–	–	25	< 10
COC(=O)/C=C/C(=O)N[C@@H](C)CN1CCC2(CC1)OC(=O)NN=C2c1cc(C#N)ccc1Br [Example 2-024]	46	28	–	–
Cc1cc(C(=O)N[C@@H](C)C[C@H]2CC[C@]3(CC2)OC(=O)NN=C3c2ccc(F)cc2Br)[nH]n1 [Example 12]	< 10	< 10	–	–
CNC(=O)C(=O)N[C@@H](C)C[C@]1(F)CC[C@@]2(CC1)OC(=O)NN=C2c1cc(C#N)ccc1Br [Example 310]	14	< 10	–	–
CNC(=O)C(=O)N[C@@H](C)C[C@H]1CC[C@]2(CC1)OC(=O)NN=C2c1ccc(F)cc1CCC(F)(F)F [Example 135]	86	33	–	–
Cc1cc(F)ccc1C1=NNC(=O)O[C@]12CC[C@@H](C[C@H](C)NC(=O)c1ccc(Cl)cn1)CC2 [Example 89]	38	37	–	–
Cc1cc(C(=O)N[C@@H](C)C[C@H]2CC[C@]3(CC2)OC(=O)NN=C3c2ccc(C#N)cc2Br)[nH]n1 [Example 199]	10	< 10	–	–
C[C@@H](C[C@H]1CC[C@]2(CC1)OC(=O)NN=C2c1ccc(F)cc1Br)NC(=O)CC#N [Example 41]	229	500	–	–
CNC1(C(=O)N[C@@H](C)C[C@H]2CC[C@]3(CC2)OC(=O)NN=C3c2ccc(F)cc2Br)COC1 [Example 124]	638	2740	–	–
Cc1cccnc1C1=NNC(=O)O[C@]12CC[C@@H](C[C@H](C)NC(=O)c1cc(Cl)no1)CC2 [Example 148]	20	18	–	–
CNC(=O)C(=O)N[C@@H](C)CN1CCC2(CC1)OC(=O)NN=C2c1cc(C(=O)OC)ccc1Br [Example 2-033]	35	< 10	–	–
C[C@@H](C[C@H]1CC[C@]2(CC1)OC(=O)NN=C2c1ccc(F)cc1Br)NC(=O)C1CCC(=O)N1 (mixture of isomers) [Example 18]	852	157	–	–
CNC(=O)C(=O)N[C@@H](C)C[C@H]1CC[C@]2(CC1)OC(=O)NN=C2c1ccc(S(C)(=O)=O)cc1Br [Example 33]	25	< 10	–	–
COc1ccc(C2=NNC(=O)O[C@]23CC[C@@H](C[C@H](C)NC(=O)c2cc(Cl)no2)CC3)c(Br)c1 [Example 59]	< 10	< 10	–	–
COc1cc(C)c(C2=NNC(=O)O[C@]23CC[C@@H](C[C@H](C)NC(=O)OCc2ccccc2)CC3)cn1 [Example 262]	15	< 10	–	–
COc1cc(C)c(C2=NNC(=O)O[C@]23CC[C@@H](C[C@H](C)NC(=O)NCc2ccccc2F)CC3)cn1 [Example 234]	247	474	–	–
[2H]C([2H])([2H])NC(=O)C(=O)N[C@@H](C)C[C@]1(OC)CC[C@@]2(CC1)OC(=O)NN=C2c1cc(F)ccc1Br [Example 2-131]	–	–	15	< 10
CCCS(=O)(=O)c1ccc(C2=NNC(=O)O[C@]23CC[C@@H](C[C@H](C)NC(=O)C(=O)NC)CC3)c(Cl)c1 [Example 77]	26	< 10	–	–
